Experimental findings from publication PMC9697818, “Design, Synthesis and Biological Assessment of Rhodanine-Linked Benzenesulfonamide Derivatives as Selective and Potent Human Carbonic Anhydrase Inhibitors” (Molecules, 2022) are described below.

Common to all, as to experiment: stopped-flow CO2 hydration assay
Holding throughout (assay type): biochemical

One experiment concerns the target T1, hCA I (Homo sapiens, UniProt P00915).
T1 construct: gene CA1; recombinant, cytosolic isoform
A digest of the protocol: (§1)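 Ki values for recombinant human carbonic anhydrase isozymes were derived by non-linear least-squares fitting with the Cheng–Prusoff equation and averaged over at least three determinations. The stopped-flow assay followed CO2 hydration for 5–10 s with 0.2 mM Phenol Red at 557 nm in 10 mM Hepes (pH 7.4) with 10 mM NaClO4, using CO2-saturated water at 25 °C and 5–12 nM enzyme. Enzyme and inhibitor were preincubated for 10 min at room temperature, with at least seven inhibitor concentrations reaching down to 0.01 nM.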

Another experiment deals with T2, hCA II (Homo sapiens, UniProt P00918).
T2 construct: gene CA2; recombinant, cytosolic isoform
Summed up:
as §1

In another experiment the target is T3, hCA XII (Homo sapiens, UniProt O43570).
T3 construct: gene CA12; recombinant, tumor-associated transmembrane isoform
Summed up:
as §1

A further experiment addresses T4, hCA IX (Homo sapiens, UniProt Q16790).
T4 construct: gene CA9; recombinant, tumor-associated transmembrane isoform
A digest of the protocol: as §1

T1 sequence (P00915 2-261): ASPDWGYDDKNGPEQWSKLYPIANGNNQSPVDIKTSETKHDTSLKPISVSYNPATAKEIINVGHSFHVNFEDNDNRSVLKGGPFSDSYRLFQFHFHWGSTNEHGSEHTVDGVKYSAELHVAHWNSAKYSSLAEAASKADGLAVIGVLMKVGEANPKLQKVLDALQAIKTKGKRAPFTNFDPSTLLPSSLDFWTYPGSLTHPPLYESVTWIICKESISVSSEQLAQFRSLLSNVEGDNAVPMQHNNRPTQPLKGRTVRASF
T3 sequence (O43570 30-289 limits assumed): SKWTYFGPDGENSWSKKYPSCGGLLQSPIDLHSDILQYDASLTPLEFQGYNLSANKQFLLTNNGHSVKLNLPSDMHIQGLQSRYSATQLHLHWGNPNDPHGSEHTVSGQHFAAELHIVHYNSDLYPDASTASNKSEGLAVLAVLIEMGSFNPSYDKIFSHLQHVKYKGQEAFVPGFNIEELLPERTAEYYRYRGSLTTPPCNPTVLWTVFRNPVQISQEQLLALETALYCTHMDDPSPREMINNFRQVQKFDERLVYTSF

By Ki is commonly meant a measure of affinity in units of concentration, obtained from inhibition or displacement. Low readings indicate higher affinity, high ones lower affinity. With `NS(=O)(=O)c1ccc(NC(=O)CN2C(=O)/C(=C3/C(=O)Nc4ccc(C(F)(F)F)cc43)SC2=S)cc1` [9c, (Z)-2-(4-Oxo-5-(2-oxo-5-(trifluoromethyl)indolin-3-ylidene)-2-thioxothiazolidin-3-yl)-N-(4-sulfamoylphenyl)acetamide], the Ki worked out at 319 nM at hCA I, 67.8 nM on hCA II, 37.8 nM on hCA XII and 13.3 nM on hCA IX.
In the case of `NS(=O)(=O)c1ccc(NC(=O)CN2C(=O)/C(=C3/C(=O)Nc4ccc(Cl)cc43)SC2=S)cc1` [9d, (Z)-2-(5-(5-Chloro-2-oxoindolin-3-ylidene)-4-oxo-2-thioxothiazolidin-3-yl)-N-(4-sulfamoylphenyl)acetamide], the Ki worked out at 35.8 nM at hCA I, 5.2 nM at hCA II, 26.3 nM at hCA XII and 6 nM at hCA IX.
